Among the test systems are COLO 205; HCT-116; HT-29; KM12; MOLT-4; Malme-3M; OVCAR-3; RXF 393; SF-268; SF-539; SK-OV-3; SN12C; SNB-19; SW-620; TK-10; U-251; UACC-62; CCRF-CEM; OVCAR-5.
Experiment in all cases: inhibition of tumour cell growth, NCI panel, 48 h

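Tested at 5 concentrations; 48 h exposure; 96-well plates; endpoints linearly interpolated, else capped at highest concentration. The concentration for 50% growth inhibition is given as GI50.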 Calls of active or inactive are those of the source. Rule as the data show it: active = GI50 up to about 1.1 µM and inactive = higher.

Take `COc1cc2c(cc1OCCCOS(C)(=O)=O)N=C[C@@H]1CCCN1C2=O`: the GI50 with COLO 205, with HCT-116, in the test with HT-29, in the test on KM12, in the test on MOLT-4 and in the test with Malme-3M was > 100 µM (inactive) throughout. The GI50 in the test with OVCAR-3, in the test on RXF 393, in the test on SF-268, with SF-539, with SK-OV-3 and in the test with SN12C was > 100 µM (inactive) in each case. The GI50 in the test with SNB-19, in the test with SW-620, with TK-10, in the test on U-251 and in the test on UACC-62 was > 100 µM (inactive) each time.

With `NN1C(=O)C(CCO)S/C1=N/N=C1/SC(CCO)C(=O)N1N` (stereo not given), the GI50 in the test on CCRF-CEM, with COLO 205, in the test with HCT-116, in the test with HT-29, in the test with KM12 and with MOLT-4 was > 100 µM (inactive) each time. Also, the GI50 in the test with Malme-3M, with OVCAR-3, in the test on OVCAR-5, in the test on RXF 393, in the test with SF-268 and in the test on SF-539 was > 100 µM (inactive) each time. The GI50 with SK-OV-3, in the test with SN12C, in the test with SNB-19, in the test with SW-620, with U-251 and in the test on UACC-62 was > 100 µM (inactive) in each case.

Turning to `CCOP(=O)(OCC)OC(C#N)c1ccc(-c2ccccc2)cc1` (stereo not given), the GI50 in the test with CCRF-CEM is 22.4 µM (inactive); in the test with COLO 205, 18.2 µM (inactive); with HCT-116, 15.2 µM (inactive); in the test with HT-29, 17.9 µM (inactive); in the test on KM12, 18.2 µM (inactive); in the test on MOLT-4 it was 14.2 µM (inactive). Also, the GI50 was 19.6 µM (inactive) in the test with Malme-3M; 19.1 µM (inactive) in the test on OVCAR-3; 54.1 µM (inactive) with OVCAR-5; 18.2 µM (inactive) in the test on SF-268; 20.8 µM (inactive) with SF-539; 28.4 µM (inactive) in the test with SK-OV-3. The GI50 is 19 µM (inactive) with SN12C; 73.1 µM (inactive) in the test on SNB-19; 13.7 µM (inactive) in the test on SW-620; 30.5 µM (inactive) in the test on TK-10; 15.2 µM (inactive) in the test with U-251; 13.9 µM (inactive) in the test with UACC-62.

As for `CC(=O)OC1CC2(c3ccccc3)C(=O)c3ccccc3N2O1` (stereo not given), the GI50 in the test on CCRF-CEM, in the test with COLO 205, with HCT-116, with HT-29, in the test with MOLT-4 and in the test with Malme-3M was > 100 µM (inactive) throughout. For the same compound, the GI50 with RXF 393, with SF-268, in the test with SF-539, with SK-OV-3, with SN12C and with SNB-19 was > 100 µM (inactive) throughout. The GI50 in the test on SW-620, in the test with U-251 and with UACC-62 was > 100 µM (inactive) in each case.

With `COC(=O)C12CCC(CC1=O)C2(C)C` (stereo not given), the GI50 in the test with COLO 205, in the test on HCT-116, in the test on HT-29, in the test with MOLT-4, in the test on Malme-3M and in the test with OVCAR-3 was > 100 µM (inactive) throughout. Further, the GI50 in the test on RXF 393, in the test on SF-539, in the test on SK-OV-3, in the test with SN12C, in the test on SNB-19 and with SW-620 was > 100 µM (inactive) throughout. Moreover, the GI50 with TK-10, with U-251 and in the test with UACC-62 was > 100 µM (inactive) in each case.

For the compound `c1ccc(SC2(Sc3ccccc3)CCCC2)cc1`, the GI50 in the test with CCRF-CEM, with COLO 205, with HCT-116, with KM12, in the test with MOLT-4 and in the test with OVCAR-3 was > 100 µM (inactive) throughout. Moreover, the GI50 with RXF 393, in the test with SF-268, with SF-539, in the test with SK-OV-3, in the test with SN12C and with SNB-19 was > 100 µM (inactive) each time. In addition, the GI50 in the test on SW-620, in the test on TK-10, in the test on U-251 and with UACC-62 was > 100 µM (inactive) each time.

With `O=C(/C=C/c1ccccc1)CC1OC(=O)c2ccccc21` (stereo not given), the GI50 in the test on CCRF-CEM was 32.8 µM (inactive); with COLO 205, > 100 µM (inactive); with HCT-116, 31.2 µM (inactive); with HT-29, > 100 µM (inactive); in the test with KM12, 40.5 µM (inactive); in the test with MOLT-4, 31 µM (inactive). Besides, the GI50 in the test with Malme-3M is > 100 µM (inactive); with OVCAR-5 it was > 100 µM (inactive); in the test with RXF 393 it was > 100 µM (inactive); with SF-268 it was > 100 µM (inactive); with SF-539, 36.1 µM (inactive); with SK-OV-3 it was > 100 µM (inactive). Moreover, the GI50 in the test with SNB-19 was 42.1 µM (inactive); with SW-620 it was 84.3 µM (inactive); in the test on TK-10, > 100 µM (inactive); in the test on U-251, > 100 µM (inactive); with UACC-62, 26.1 µM (inactive).

Take `O=[N+]([O-])c1cccc([N+](=O)[O-])c1Cl`: the GI50 in the test with COLO 205 is 20.6 µM (inactive); with HCT-116 it was 40.6 µM (inactive); in the test with HT-29, 19.9 µM (inactive); in the test on KM12 it was 11.1 µM (inactive); in the test on MOLT-4, 3.56 µM (inactive); in the test on Malme-3M, 17.4 µM (inactive). Also, the GI50 in the test on OVCAR-3 was 1.29 µM (inactive); with OVCAR-5, 19.1 µM (inactive); with RXF 393, 17.7 µM (inactive); with SF-268, 19.4 µM (inactive); in the test on SF-539, 17.9 µM (inactive); in the test on SN12C, 23.4 µM (inactive). The GI50 with SNB-19 is 13.1 µM (inactive); in the test on SW-620, 17 µM (inactive); in the test on TK-10, 21.9 µM (inactive); in the test on U-251, 11 µM (inactive); with UACC-62, 17.5 µM (inactive).

As for `Cc1cc(N(CCC#N)CCC#N)ccc1/C=C1N=C(/C=C\c2ccccc2)N(NC(=O)CC(=O)Nc2ccccc2Cl)C\1=O`, the GI50 with CCRF-CEM, in the test on COLO 205, in the test with HCT-116, in the test with HT-29, with KM12 and in the test on MOLT-4 was > 100 µM (inactive) throughout. The GI50 in the test on Malme-3M, with OVCAR-3, with OVCAR-5, with SF-268, in the test with SF-539 and in the test with SK-OV-3 was > 100 µM (inactive) each time. In addition, the GI50 with SN12C, with SNB-19, with SW-620, with TK-10, in the test on U-251 and with UACC-62 was > 100 µM (inactive) throughout.

For the compound `CCCC1N2CCCCC2[C@@H]2c3[nH]c4ccccc4c3CCN12` (stereo not given in full), the GI50 in the test on CCRF-CEM was > 100 µM (inactive); in the test with COLO 205 it was > 100 µM (inactive); in the test on HCT-116 it was > 100 µM (inactive); in the test on HT-29, > 100 µM (inactive); in the test with MOLT-4 it was > 100 µM (inactive); in the test with Malme-3M, 25.8 µM (inactive). The GI50 in the test with OVCAR-3, with OVCAR-5, with RXF 393, in the test on SF-268, in the test on SF-539 and with SK-OV-3 was > 100 µM (inactive) throughout. In addition, the GI50 with SN12C was > 100 µM (inactive); in the test on SNB-19, > 100 µM (inactive); in the test with SW-620 it was > 100 µM (inactive); with U-251, > 100 µM (inactive); in the test with UACC-62, 85.1 µM (inactive).

With `O=C(O)[C@@H]1OCCOCCO[C@@H](C(=O)O)[C@H](C(=O)O)OCCOCCO[C@H]1C(=O)O`, the GI50 in the test with CCRF-CEM was > 51.2 µM (inactive); with COLO 205, > 61.7 µM (inactive); in the test on HCT-116 it was > 67.8 µM (inactive); with HT-29, > 100 µM (inactive); in the test on KM12 it was > 100 µM (inactive); in the test on MOLT-4, > 64.3 µM (inactive). Also, the GI50 in the test with Malme-3M, in the test with OVCAR-3, in the test on OVCAR-5, in the test with SF-268, in the test with SF-539 and in the test with SK-OV-3 was > 100 µM (inactive) throughout. The GI50 in the test with SN12C was > 100 µM (inactive); in the test with SNB-19 it was > 100 µM (inactive); with SW-620, > 50.1 µM (inactive); in the test on TK-10 it was > 100 µM (inactive); in the test on U-251, > 42.1 µM (inactive); in the test with UACC-62 it was > 100 µM (inactive).

Turning to `CCC(C)(C)C(=O)O[C@H]1C[C@@H](C)C=C2C=C[C@H](C)[C@H](CC[C@@H]3C[C@@H](O)CC(=O)O3)[C@H]21` [SIMVASTATIN], the GI50 in the test with CCRF-CEM is 11.3 µM (inactive); in the test with COLO 205, 12.1 µM (inactive); in the test on HCT-116, 3.27 µM (inactive); in the test with HT-29, 6.85 µM (inactive); in the test on KM12, 8.45 µM (inactive); with MOLT-4 it was > 30 µM (inactive). The GI50 in the test with OVCAR-3 was 23.1 µM (inactive); in the test with RXF 393, 0.811 µM (active); in the test with SF-539, 9.04 µM (inactive); in the test on SK-OV-3, 1.72 µM (inactive); in the test on SN12C it was 1.51 µM (inactive); with SW-620, 9.59 µM (inactive). Also, the GI50 was 0.766 µM (active) in the test with U-251 and 0.469 µM (active) in the test with UACC-62.
